In patent publication US20020058244A1, “Method for detecting uracil biosynthesis inhibitors and their use as herbicides” (priority 2000, published 2002):
“Also recorded” adds a separate entry of the source. Like-named read-outs stand apart in the source and are kept apart here. Values belong to the compound of their own block, whether it stands above or below them.

Assays:
[1] = system: Arabidopsis; test: Arabidopsis 96 well microtiter plate injury and reversal test; assay type: in vivo; settings: for uracil biosynthesis inhibitory activity: reversal assay, see Table III; for reversal of lethal effects by uridine: 100 μM uridine
Procedure: The compounds were tested in a 96 microtiter well plate containing various concentrations of probe compound with or without intermediates of the pyrimidine and purine biosynthesis pathways to detect reversal of injury. Plates were filled with 0.7% agar medium, seeded with Arabidopsis, and placed in a growth chamber for several days to allow for seed germination and plant growth. Arabidopsis plates were rated on a scale from 0 to 9 where 0 represents no injury, and 9 represents no germination. In addition, injury symptoms observed were recorded.

[2] = Stability in aqueous solution by mass spectroscopy and NMR; assay type: physicochemical; settings: for half-life: aqueous solution
Procedure: The stability analysis of the compound “B”, compound “C”, compound “G”, and compound “E” compounds was performed using a Hewlett Packard HP1100 LC system coupled to a Micromass Platfom-LC mass spectrometer operating with an electrospray ionization source. In positive ion electrospray, AC12254 82A produced molecules at m/z 112(M^+), m/z 153 (M+41) at a cone voltage of 30V. Retention time of AC 12254 82A was 12.54 min with absorption maxima of 248 and 314 nm.
Column: Hypersil Spherisorb Waters ODS(2), 3.6×150 mm
Eluent: 60% acetonitrile, 40% water (0.1% formic acid)
Photodiode Array Detection: Scan Range: 190-600 nm
1H NMR was taken in DMSO-d6 on a 500 MHZ Bruker NMR Spectrometer. […] Each had 5 protons as follows: NH, 2OH and 2 CH.

[3] = system: OPRTase/ODCase; test: In vitro enzymatic conversion of [14C]-orotate to UMP, cell free extract from corn root tissue; assay type: biochemical; settings: for effect on OPRTase/ODCase activity (conversion of [14C]-orotate to UMP): cell free extract
Procedure: (§1) Etiolated corn roots and shoots or soybean suspension cells were used as tissue. Corn seedlings were germinated on vermiculite for 4 days in the dark at 26_C. and roots and shoots harvested separately. The soybean cells were grown in media consisting of Muashige and Skoog salts (Physiol. Plant (1962) 15:473-497) purchased from Gibco/BRL, vitamins (glycine 2 mg/L, thiamine 0.1 mg/L, nicotinic acid 0.5 mg/L, pyridoxine-HCl 0.5 mg/L), myo-inositol (100 mg/L), 2,4-D ([…]), and 30 g/L sucrose. Cell cultures are grown at 25° C. with gentle shaking. Cultures were transfered every 7 days to new growth media.
(§2) Approximately 5-10 g plant tissue were ground in liquid nitrogen and resuspended in 1:2 (w/v) homogenization buffer (30 mM KPO4^−; 25 mM […], 5 mM MgCl2, 5 mM ascorbic acid, pH 7.2). The homogenate was centrifuged at 10,000 g for 20 min, and the supernatant desalted using BioRad columns. The desalted supernatant was used for OPRTase/ODCase enzyme assays. For DHOD enzyme extraction, the supernatant was further centrifuged at 100,000 g for 45 min to obtain a microsomal pellet. The microsomal pellet was resuspended in 3-4 ml resuspension buffer (70 mM Tris-base, pH 7.4) containing 1% Triton X-100.
All enzyme assays were performed according to Rawls, J. M. (1978) Anal. Biochem. 86 (1): 107-117 and Cleaveland et al. (1995). Biochem. Pharm. 49(7):947-954. Enzyme assays were performed in a total volume of 200 ul with 1 uM [^14C]carbamoyl aspartate, [^14C]dihydroorotate or [^14C]orotate as substrates, and 1-5 mM probe compound or barbiturate as inhibitors. The [^14C]carbamoyl aspartate and [^14C]dihydroorotate assay was performed using a potassium phosphate buffer, pH 7.4 with 12 mM NAD^+, and 10 mM MgCl2. […] Over time, 25 ul aliquots were taken from the reaction tube and boiled for 5 min to stop the reaction. Samples were spotted onto cellulose TLC plates and run using 0.1 M potassium phosphate buffer, 100% ammonium sulfate, and 1-propanol (10:6:1). Plates were developed using a TLC plate radioisotope detector. Orotate and UMP standards were run next to unknowns to identify the conversion of [^14C]orotate to [^14C]UMP in the enzyme assay.

[4] = biological target: T1, ODCase (Rattus norvegicus, UniProt A0ACM8Q7Z8); settings: rat brain tissue; cited from earlier work
T1 construct: host or cells: rat brain tissue

[5] = system: DHOD; test: In vitro conversion of [14C]dihydroorotate to orotate, corn root microsomal preparation; assay type: biochemical
Procedure: as §1, §2
(§3) All enzyme assays were performed according to Rawls, J. M. (1978) Anal. Biochem. 86 (1): 107-117 and Cleaveland et al. (1995). Biochem. Pharm. 49(7):947-954. Enzyme assays were performed in a total volume of 200 ul with 1 uM [^14C]carbamoyl aspartate, [^14C]dihydroorotate or [^14C]orotate as substrates, and 1-5 mM probe compound or barbiturate as inhibitors. The [^14C]carbamoyl aspartate and [^14C]dihydroorotate assay was performed using a potassium phosphate buffer, pH 7.4 with 12 mM NAD^+, and 10 mM MgCl2. The [^14C]orotate enzyme assay was performed using Tris buffer, pH 8.8 with 12 mM PRPP and 10 mM MgCl2. Over time, 25 ul aliquots were taken from the reaction tube and boiled for 5 min to stop the reaction. Samples were spotted onto cellulose TLC plates and run using 0.1 M potassium phosphate buffer, 100% ammonium sulfate, and 1-propanol (10:6:1). Plates were developed using a TLC plate radioisotope detector. Orotate and UMP standards were run next to unknowns to identify the conversion of [^14C]orotate to [^14C]UMP in the enzyme assay.

[6] = system: DHO; test: In vitro conversion of [14C]dihydroorotate to carbamoyl aspartate, corn root microsomal preparation; assay type: biochemical
Procedure: as §1, §2, §3

[7] = system: grass species; test: Greenhouse herbicide efficacy, preemergence and post-emergence, whole plant injury; assay type: in vivo; settings: preemergence and post-emergence applications
Excerpt: (§4) The compounds were applied to flats containing individually potted plant species as post-emergent treatments, or seeded flats without emerged plants for preemergent treatments. The compounds were delivered in an 80% acetone solution plus 0.2% X-77. After two or three weeks of treatment, plants were rated compared to controls on a scale of 0 to 9 where 0 represents no injury and 9 represents 100% injury.

[8] = system: wheat; test: Greenhouse herbicide efficacy, crop safety; assay type: in vivo; settings: preemergence and post-emergence applications
Excerpt: as §4

[9] = system: uracil biosynthesis pathway; test: [14C]-carbamoyl aspartate incorporation into uracil/uridine and orotate in soybean cell cultures; assay type: cell-based
Procedure: Soybean suspension cultures in the linear growth phase were used for [^14C]carbamoyl aspartate uptake and incorporation studies. Cells were treated with 0.01 uM [^14C]carbamoyl aspartate (approximately 200,000-400,000 dpm) with or without 100 uM compound “B”. Over time, aliquots were harvested by filtration, and rinsed thoroughly with potassium phosphate buffer, pH 3.11. Aliquots of uptake media and rinse were counted using a liquid scintillation spectrophotometer to determine percent uptake. Cells were immediately weighed, ground to a fine powder in liquid nitrogen, and suspended in 50% methanol. The homogenate was centrifuged at 10,000 g for 20 min. A portion of the pellet was weighed out and combusted to determine dpm's associated with this fraction. An aliquot of the supernatant was counted to determine the amount of label in the soluble fraction. Recovery of applied radiolabeled [^14C]carbamyol aspartate was 90-100%.
The soluble supernatant was concentrated overnight by lyophilization, and the extract was resuspended in 1 ml potassium phosphate buffer, pH 3.11. For HPLC analysis an anion exchange column was used with 85:15% potassium phosphate buffer, pH 3.11 and acetonitrile as running buffers. Fractions (1 ml) were collected for 20 min (flow rate […]), and counted using a liquid scintillation counter (LSC). UV absorbance was analyzed at 260 and 275 nm as the optimum absorbency wavelengths for UMP and orotate, respectively. Standards were used to identify the various peaks from the HPLC profile. Standard retention times under these conditions were: 3-4 min uracil/uridine, 7-9 min carbamoyl aspartate, 11-13 min UMP, and 17-19 min orotate.

T1 sequence (A0ACM8Q7Z8 entry or part of it): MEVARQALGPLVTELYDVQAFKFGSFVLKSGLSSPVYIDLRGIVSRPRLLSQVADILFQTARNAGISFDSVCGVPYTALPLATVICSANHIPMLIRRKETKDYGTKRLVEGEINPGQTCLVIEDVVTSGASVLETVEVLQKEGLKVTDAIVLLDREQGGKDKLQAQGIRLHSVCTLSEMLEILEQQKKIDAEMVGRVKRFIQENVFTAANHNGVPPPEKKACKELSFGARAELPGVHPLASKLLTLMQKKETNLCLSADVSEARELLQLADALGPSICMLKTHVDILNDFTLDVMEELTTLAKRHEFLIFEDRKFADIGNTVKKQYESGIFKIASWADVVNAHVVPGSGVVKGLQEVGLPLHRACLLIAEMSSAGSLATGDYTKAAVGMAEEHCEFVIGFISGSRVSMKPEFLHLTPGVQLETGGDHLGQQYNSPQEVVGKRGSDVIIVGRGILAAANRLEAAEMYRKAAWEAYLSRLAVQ

stability in aqueous solution [2]: relatively stable | half-life [2]: > 24 h
Compound: CN1N=CC(=CNc2ccc(F)cc2F)C1=O [G, 4-[[(2,4-difluorophenyl)amino]methylene]-2,4-dihydro-2-methyl-3H-pyrazol-3-one]
uracil biosynthesis inhibitory activity [1]: only marginal

Compound: O=c1cnn([C@@H]2O[C@H](CO)[C@@H](O)[C@H]2O)c(=O)[nH]1 [Compound 6-Azauridine, 6-Azauridine, reference compound]
effect on OPRTase/ODCase activity (conversion of [14C]-orotate to UMP) [3]: not shown to inhibit

Compound: O=C1CC(=O)N([C@@H]2O[C@H](COP(=O)(O)O)[C@@H](O)[C@H]2O)C(=O)N1 [ribotide of barbiturate]
Ki [4]: 0.0041 µM

Compound: O=C(O)C1C=NNC1=O (stereo not shown) [J, 4,5-dihydro-5-oxo-1H-pyrazole-4-carboxylic acid; or 2,3-dihydro-3-oxo-1H-pyrazole-4-carboxylic acid]
effect on DHOD activity (dihydroorotate converted to orotate) versus untreated control [5]: no difference | effect on DHO activity (dihydroorotate converted to carbamoyl aspartate) versus untreated control [6]: no difference

IC50 ([9]; Glycine max, soybean cell cultures, estimated, read-out: IC50 of inhibition of [14C]-carbamoyl aspartate incorporation): ~50 µM | half-life [2]: < 24 h
Compound: O=C1NN=C/C1=C/Nc1ccc(F)cc1F [B, 4-[[(2,4-difluorophenyl)amino]methylene]-2,4-dihydro-3H-pyrazol-3-one]
herbicidal effect, injury [7]: ≥ 50% | crop safety [8]: safety on wheat | germination of Arabidopsis seeds ([1]; 1 μM): normal germination | germination of Arabidopsis seeds ([1]; 16 μM): partial germination | growth inhibition ([1]; 30 uM combined with 100 uM uracil): 0% | germination of Arabidopsis seeds ([1]; 50 μM): not observed | germination of Arabidopsis seeds ([1]; 100 μM): not observed | reversal of injury by uracil, UMP and uridine ([1]; 100 uM antidote in growth media): reversed | reversal of lethal effects by uridine ([1]; highest tested concentration of compound): does not reverse | reversal of lethal effects by uridine ([1]; lower concentrations of compound (Rows 2-4)): reversed | germination of Arabidopsis seeds ([1]; 500 μM): not observed | inhibition at 30 µM ([1]; Arabidopsis thaliana, 30 uM, compound alone, read-out: growth inhibition): 50% | IC50 ([1]; Arabidopsis thaliana, 96 well microtiter plate, read-out: estimated IC50 on Arabidopsis): 30 µM | reversal of herbicidal effects by orotate or OMP ([1]; in vivo): did not reverse | reversal of herbicidal effects by vitamins or purines ([1]; in vivo): Neither vitamins nor purines reversed | reversal of lethal effects by adenine, cytosine, guanine, and thymidine ([1]; in vivo): did not reverse | incorporation of radiolabeled carbamoyl aspartate into uracil/uridine ([9]; 50 μM): 25% | incorporation of radiolabeled carbamoyl aspartate into uracil/uridine ([9]; 100 μM): 10% | incorporation of [14C]-carbamoyl aspartate into orotate peak (16-19 min) ([9]; 100 uM, HPLC profile FIG. 6): 70% | incorporation of radiolabeled carbamoyl aspartate into uracil/uridine ([9]; 100 μM, listed as probe compound): 19% | incorporation of radiolabeled carbamoyl aspartate into orotic acid ([9]; 1 and 10 μM): 0-5% | incorporation of radiolabeled carbamoyl aspartate into uracil/uridine ([9]; 1 and 10 μM): 80-90% | incorporation of radiolabeled carbamoyl aspartate into orotic acid ([9]; 50 and 100 μM): 45-60% | radiolabeled orotate converted to UMP ([3]; 15 minutes after treatment, 100 μM PRPP, untreated control 55%): 55% | effect on OPRTase/ODCase activity (conversion of [14C]-orotate to UMP) [3]: does not affect | effect on OPRTase/ODCase activity (conversion of [14C]-orotate to UMP) ([3]; listed as probe compound): did not inhibit | effect on DHOD activity (dihydroorotate converted to orotate) versus untreated control [5]: no difference | effect on DHOD activity (dihydroorotate converted to orotate) versus untreated control ([5]; listed as probe compound): did not inhibit | effect on DHO activity (dihydroorotate converted to carbamoyl aspartate) versus untreated control [6]: no difference | effect on DHO activity (dihydroorotate converted to carbamoyl aspartate) versus untreated control ([6]; listed as probe compound): did not inhibit

Compound: CN(C)C=C1C=NNC1=O [E, 4-[(dimethylamino)methylene]-2,4-dihydro-3H-pyrazol-3-one]
uracil biosynthesis inhibitory activity [1]: significant | stability in aqueous solution [2]: stable in aqueous solution with no hydrolysis detected; also recorded: stable

Compound: O=c1[nH][nH]cc1C=NO [D, 2,3-dihydro-3-oxo-1H-pyrazole-4-carboxaldehyde-4-oxime]
effect on DHOD activity (dihydroorotate converted to orotate) versus untreated control [5]: no difference | effect on DHO activity (dihydroorotate converted to carbamoyl aspartate) versus untreated control [6]: no difference
